This passage reports TGI results from PubChem BioAssay (NCI).

Among the test systems are 786-0 renal; COLO 205 colon; DU-145 prostate; HCT-116 colon; MDA-MB-231 breast; OVCAR-4 ovarian; PC-3 prostate; SF-539 CNS; SK-MEL-2 melanoma; LOX IMVI melanoma.
What all share (assay): growth of human tumour cells (NCI), 48 h

Structures are written as SMILES.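 Growth conditions: 96-well plates. Treatment: test compound, 48 hours, 5 concentrations. Analysis: linear interpolation between bracketing concentrations; unreached endpoints set to highest concentration. The concentration for full growth arrest is given as TGI.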

With `COc1ccc(C2SCC(=O)N2N=C2NC(=O)CC(=O)N2)cc1` (configuration not stated), the TGI in the experiment on 786-0 renal, in the experiment with COLO 205 colon, in the experiment on DU-145 prostate, in the experiment on HCT-116 colon, in the experiment with MDA-MB-231 breast and with OVCAR-4 ovarian was more than 100 µM in each case. The TGI with PC-3 prostate, in the experiment on SF-539 CNS and in the experiment with SK-MEL-2 melanoma was more than 100 µM each time.
On to `c1cnc2c(c1)-n1cccc1C1(CCOCC1)NN2`, for which the TGI with 786-0 renal, in the experiment with COLO 205 colon, with HCT-116 colon, in the experiment with OVCAR-4 ovarian, with SF-539 CNS and with SK-MEL-2 melanoma was more than 100 µM each time.
For `CN1CC(c2ccccc2)=Cc2c1ccc(N)c2N=N`, the TGI in the experiment with 786-0 renal, in the experiment with HCT-116 colon, with LOX IMVI melanoma, with MDA-MB-231 breast, with OVCAR-4 ovarian and in the experiment with PC-3 prostate was more than 100 µM in each case. Further, the TGI in the experiment on SF-539 CNS and in the experiment with SK-MEL-2 melanoma was more than 100 µM each time.
As to `CC(C)(C)C1CC[C@H]2c3c([nH]c4ccc(Br)cc34)[C@H]3C(=O)N(c4ccccc4)C(=O)[C@H]3[C@H]2C1` (some centres not stated), the TGI with 786-0 renal was 23.6 µM; with COLO 205 colon, 44.2 µM; with HCT-116 colon, more than 100 µM; in the experiment on LOX IMVI melanoma it was more than 100 µM; in the experiment with OVCAR-4 ovarian it was 33.3 µM; in the experiment on SK-MEL-2 melanoma, more than 100 µM.
Turning to `COc1ccc(C[C@@H]2CN(C(=O)c3ccccc3)[C@H](Cc3ccc(O)cc3)CN2C(=O)c2ccccc2)cc1Br`, the TGI in the experiment on 786-0 renal, in the experiment with COLO 205 colon, in the experiment on DU-145 prostate, in the experiment with HCT-116 colon, in the experiment on LOX IMVI melanoma and in the experiment with OVCAR-4 ovarian was more than 100 µM throughout. Besides, the TGI with PC-3 prostate, in the experiment with SF-539 CNS and in the experiment with SK-MEL-2 melanoma was more than 100 µM in each case.
On to `Oc1c(Cl)c2nccnc2c2ccccc12`, for which the TGI in the experiment with 786-0 renal, with COLO 205 colon, in the experiment on HCT-116 colon, in the experiment with OVCAR-4 ovarian, in the experiment with SF-539 CNS and in the experiment with SK-MEL-2 melanoma was more than 100 µM in each case.
`CS(=O)(=O)NNS(=O)(=O)c1ccc(Br)cc1`: the TGI with 786-0 renal, in the experiment on COLO 205 colon, in the experiment on HCT-116 colon, in the experiment on LOX IMVI melanoma, with OVCAR-4 ovarian and in the experiment with SF-539 CNS was more than 100 µM each time. In addition, the TGI with SK-MEL-2 melanoma was more than 100 µM.
For `c1ccc2[nH]c(-c3nc4ccccc4o3)nc2c1`, the TGI in the experiment on 786-0 renal, in the experiment with COLO 205 colon, with HCT-116 colon, with LOX IMVI melanoma, with OVCAR-4 ovarian and with SF-539 CNS was more than 100 µM each time. Further, in the experiment on SK-MEL-2 melanoma, the TGI is more than 100 µM.
For `Cc1cc(Br)c(N2C3=C(CC4=C2CCCC4=O)C(=O)CCC3)c(Br)c1`, the TGI in the experiment on 786-0 renal, in the experiment with LOX IMVI melanoma, in the experiment with OVCAR-4 ovarian, in the experiment with PC-3 prostate and with SF-539 CNS was more than 100 µM each time.
For `NCCC1(N)CCNCC1`, the TGI in the experiment with 786-0 renal, with COLO 205 colon, in the experiment on DU-145 prostate, in the experiment with HCT-116 colon, with MDA-MB-231 breast and in the experiment with OVCAR-4 ovarian was more than 100 µM throughout. For the same compound, the TGI with PC-3 prostate, in the experiment with SF-539 CNS and with SK-MEL-2 melanoma was more than 100 µM in each case.
With `COC(=O)C(=O)C(C(=O)C(=O)Nc1ccccc1C(=O)OC)c1nc2ccc(C(=O)c3ccccc3)cc2[nH]c1=O` (configuration not stated), the TGI is more than 100 µM in the experiment with 786-0 renal; more than 100 µM with HCT-116 colon; more than 100 µM in the experiment on LOX IMVI melanoma; more than 100 µM in the experiment with MDA-MB-231 breast; 88.8 µM with OVCAR-4 ovarian; more than 100 µM in the experiment on PC-3 prostate. Also, the TGI in the experiment on SF-539 CNS and in the experiment with SK-MEL-2 melanoma was more than 100 µM in each case.
On to `COC(=O)OC[C@H]1O[C@@H](n2cc(C)c(=O)[nH]c2=O)CC1OC(=O)OC` (some centres not stated), for which the TGI in the experiment with 786-0 renal, with COLO 205 colon, with DU-145 prostate, with LOX IMVI melanoma, in the experiment with MDA-MB-231 breast and in the experiment with OVCAR-4 ovarian was more than 100 µM throughout. Besides, the TGI in the experiment with PC-3 prostate, in the experiment on SF-539 CNS and in the experiment with SK-MEL-2 melanoma was more than 100 µM in each case.
`COc1ccc(-n2sc3ncc(-c4ccccc4)cc3c2=O)cc1`: the TGI in the experiment with 786-0 renal was 39.3 µM; with COLO 205 colon, more than 100 µM; in the experiment with DU-145 prostate it was more than 100 µM; in the experiment on HCT-116 colon it was 57.8 µM; with LOX IMVI melanoma it was more than 100 µM; in the experiment on OVCAR-4 ovarian it was 45.7 µM. Also, the TGI with PC-3 prostate and with SK-MEL-2 melanoma was more than 100 µM in each case.
Consider `CC(C)CN1CN(c2ccccc2)C2(CCN(CC(C)(c3ccc(F)cc3)C3OCCO3)CC2)C1=O` (configuration not stated), for which the TGI in the experiment with 786-0 renal was 12.1 µM; with COLO 205 colon, 3.71 µM; in the experiment with DU-145 prostate, 14.8 µM; in the experiment on HCT-116 colon, 13.9 µM; in the experiment on LOX IMVI melanoma, 5.31 µM; in the experiment with OVCAR-4 ovarian, 29.7 µM. For the same compound, the results for the TGI in the experiment with PC-3 prostate, in the experiment with SF-539 CNS and in the experiment on SK-MEL-2 melanoma were 14.3 µM, 18.2 µM and 11.5 µM, respectively.
For the compound `O=C(CCN1CCCCC1CCO)Nc1ccc2c(c1)C(=O)c1ccc(NC(=O)CCN3CCCCC3CCO)cc1C2=O` (configuration not stated), the TGI is 5.54 µM in the experiment with 786-0 renal; 10.4 µM in the experiment on COLO 205 colon; 14.7 µM in the experiment on HCT-116 colon; 13.2 µM in the experiment with LOX IMVI melanoma; 45.4 µM in the experiment with OVCAR-4 ovarian; 7.89 µM in the experiment on SF-539 CNS. In the experiment on SK-MEL-2 melanoma, this compound yielded a TGI of 7.27 µM.
With `Oc1c(OCc2nnc(CCCCCCCCc3nnc(COc4ccc5ccccc5c4O)n3Nc3ccccc3)n2Nc2ccccc2)ccc2ccccc12`, the TGI in the experiment on 786-0 renal worked out at 27.4 µM; in the experiment with COLO 205 colon, 1.32 µM; with DU-145 prostate it was 31.9 µM; with HCT-116 colon, 24.8 µM; in the experiment on MDA-MB-231 breast it was 23.4 µM; in the experiment on OVCAR-4 ovarian, 20.7 µM. Further, the TGI in the experiment on PC-3 prostate stood at 19.2 µM; in the experiment with SF-539 CNS, 20 µM; with SK-MEL-2 melanoma, 27.6 µM.
